We go through five molecules from patent US6828328B1, “Analgesic combination of muscarinic agonists” (UCB s.A., priority 2002, dated 2004).

The test system of data set [1] is CD-1 female mice. Kind of data set: mouse tail-flick test (antinociception, %MPE). The data set is classed as in vivo. The conditions noted are these: for antinociception (%MPE): at 30 min.
Text: Its antinociception (analgesia) in vivo had been investigated using the mouse tail flick test. The mouse tail-flick test is a well-known experimental model to verify the analgesic activity of potential moderate and severe pain relievers including muscarinic agonists (Chau, T. T: Analgesic Testing in Animal Models. Pharmacological Methods in the Control of Inflammation. 195-212. 1989, Alan R. Liss. Inc.). […] Other possible muscarinic agonist activities, such as tremor, sedation, salivation, and hypothermia were observed simultaneously.
(§1) Experiments were carried out using a commercially available tail-flick analgesia meter (model TF-6 analgesia meter, Emdie Instrument Company, Maidens, Va., USA). […] A 10-second cutoff time was used as the maximum latency to avoid tissue damage.
(§2) Control animals received the corresponding vehicle(s) by the same route of administration.
The percentage of maximum possible effect (%MPE) was calculated as follows:
%MPE=[(postdrug latency−predrug latency)÷(cutoff time−predrug latency)]×100%.
All results were expressed as mean±SEM. […] This comparison was carried out at the peak of antinociception (30 minutes). Student's T test (one tailed analysis)(Microsoft Excel 97, Microsoft Corporation, Redmond, Wash., USA) was used to analyse the statistical significance between the two groups. The value of p<0.05 was considered as statistically significant.
as §1, §2
All results were expressed as mean±SEM. […] This comparison was carried out at the peak of antinociception (30 minutes). One tailed Student's T test (Microsoft Excel 97, Microsoft Corporation, […], Wash., USA) was used to analysis the statistical significance between the two groups. The value of p<0.05 was considered as statistically significant.
(Hot-plate and tail-flick tests time the reaction to a heat stimulus.)

The test system of data set [2] is CD-1 female mice. Kind of data set: observation of muscarinic side effects (tremor, sedation, salivation). Format: in vivo, mouse. The conditions noted are these: at its ED50 dose. As for the experimental part:
(§3) Observations of tremor, sedation, and salivation were made by close visual inspection of the mice at 5, 15, 30 and 60 minutes after injection of 4-s-[4-propylsulfanyl)-1,2,5-thiadiazol-3-yl]-1-azatricyclo[3.3.1.1<3,7>]decane hydrochloride. Tremor and sedation were scored as +(indicated visible tremor or sedation) or −(indicated non-visible tremor or sedation). Salivation was scored according to the following scale: 0, no sign of saliva within animal's mouth; 1, evidence of saliva in animal's mouth, but not on animal's muzzle; and 2, evidence of saliva in animal's mouth and on muzzle. No other muscarinic receptor mediated activities were observed.
as §3, with “4-s-[4-(propylsulfanyl)-1,2,5-thiadiazol-3-yl]-1-azatricyclo[3.3.1.1<3,7>]decane” for “4-s-[4-propylsulfanyl)-1,2,5-thiadiazol-3-yl]-1-azatricyclo[3.3.1.1<3,7>]decane”

Where “and” joins values, the source holds several entries; their conditions need not be identical. Equal entries are not always repeated.

Regarding `CCCSc1nsnc1[C@H]1[C@@H]2C[C@@H]3C[C@H]1CN(C3)C2.Cl` [4-s-[4-(propylsulfanyl)-1,2,5-thiadiazol-3-yl]-1-azatricyclo[3.3.1.1<3,7>]decane hydrochloride], the “antinociception (%MPE)” value with CD-1 female mice [1] (0.03 mg/kg sc alone, hydrochloride) came to 19%; in the data set with CD-1 female mice [1] (0.05 mg/kg sc alone), 38%. In the data set with CD-1 female mice [1] (mouse tail-flick test, more potent than morphine), the “antinociceptive potency relative to morphine” value is 300-1000 fold. In addition, in the data set with CD-1 female mice [2], the “incidence of muscarinic side effects” value was “low incidence”.
Turning to `CS(=O)(=O)Nc1ccc([N+](=O)[O-])cc1OC1CCCCC1` [NS-398], the antinociceptive effect entry in the data set with CD-1 female mice [1] (NS-398 0.05 mg/kg ip alone) was “without antinociceptive effect”.
Regarding `CC(=O)Nc1ccc(O)cc1` [acetaminophen], the antinociceptive effect result in the data set on CD-1 female mice [1] (acetaminophen 60 mg/kg ip alone) is reported as “without antinociceptive effect”.
For the molecule `CC(C)Cc1ccc(C(C)C(=O)O)cc1` (stereo not drawn) [ibuprofen], in the data set with CD-1 female mice [1] (ibuprofen 50 mg/kg ip alone), the antinociceptive effect entry is recorded as “without antinociceptive effect”.
Consider `CN1CC[C@]23c4c5ccc(O)c4O[C@H]2[C@@H](O)C=C[C@H]3[C@H]1C5` [morphine], for which the “antinociception (%MPE)” value with CD-1 female mice [1] (morphine 3 mg/kg sc alone) was 13% and 25%; in the data set on CD-1 female mice [1] (morphine 5.0 mg/kg sc alone) it was 35%.
